Data on twelve compounds can be found in patent publication US20260092057A1, “BCL-XL/BCL-2 DEGRADERS AND USES THEREOF” (Kymera Therapeutics, Inc., priority 2022, published 2026).

Common to all, as to assay type: cell-based
One assay relates to Caki-2 cells. Put plainly: CTG (CellTiter-Glo) cell viability assay, Caki-2. Particulars: Homo sapiens, CAKI-2, 72 h, Caki-2, 3-day; read-out: CTG Chempartner/PHA- Caki-2 3-day: Average external-IC50. In a few lines:
(§1)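 Viability read by CellTiter-Glo luminescence after 3 days' compound exposure at 37 °C under 5% CO2, with 10,000 cells per well. Dosing was nine 1:3 dilutions starting at 10 µM, DMSO normalized to 0.2%; IC50 values come from three-parameter logistic curve fitting.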

For a further assay, the target named is T1, BCL-XL (Homo sapiens, UniProt Q07817).
T1 construct: BCL-XL degradation results in MOLT-4 cells for compounds of the invention; endogenous in cells; host or cells: MOLT-4
In words: BCL-XL degradation assay in MOLT-4 cells (ELISA, 6 h). The settings on record: for DC50: read-out: Bcl-xL ELISA in MOLT-4 degradation 6 h: External Abs-DC50.

The test system of a further assay is MOLT-4 cells. Put plainly: CTG (CellTiter-Glo) cell viability assay, MOLT-4. The settings on record: Homo sapiens, MOLT-4, 72 h, MOLT-4, 3 day; read-out: CTG Cell Viability Assay - MOLT-4 3 day: Average external-IC50. The method in brief: as §1

T1 sequence (Q07817 whole entry): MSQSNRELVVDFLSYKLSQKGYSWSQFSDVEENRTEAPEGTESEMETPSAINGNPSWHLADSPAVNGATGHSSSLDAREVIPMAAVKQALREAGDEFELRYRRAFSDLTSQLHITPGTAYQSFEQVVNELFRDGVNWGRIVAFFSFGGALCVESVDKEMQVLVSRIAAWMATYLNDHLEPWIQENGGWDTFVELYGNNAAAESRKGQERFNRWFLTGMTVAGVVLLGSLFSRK

As to `Cc1ncsc1-c1ccc([C@H](C)NC(=O)[C@@H]2C[C@@H](O)CN2C(=O)[C@@H](NC(=O)CCCCCC(=O)N2CCN(Cc3ccc(-c4ccc(Cl)cc4)c(CN4CCN(c5ccc(C(=O)NS(=O)(=O)c6ccc(N[C@H](CCN(C)C)CSc7ccccc7)c([N+](=O)[O-])c6)cc5)CC4)c3)CC2)C(C)(C)C)cc1` [I-7], the IC50 in the assay on Caki-2 cells was greater than 30 µM. Also, at BCL-XL, the maximal degradation (Dmax) was less than 50% and the 50% degradation concentration (DC50) is 0.5 to 1 µM. In addition, the IC50 in the assay on MOLT-4 cells was greater than 3 µM.

Turning to `Cc1ncsc1-c1ccc([C@H](C)NC(=O)[C@@H]2C[C@@H](O)CN2C(=O)[C@@H](NC(=O)CCCCCCCC(=O)N2CCN(Cc3ccc(-c4ccc(Cl)cc4)c(CN4CCN(c5ccc(C(=O)NS(=O)(=O)c6ccc(N[C@H](CCN(C)C)CSc7ccccc7)c([N+](=O)[O-])c6)cc5)CC4)c3)CC2)C(C)(C)C)cc1` [I-8], the IC50 in the assay on Caki-2 cells is greater than 30 µM. For the same compound, on BCL-XL, the Dmax lay in the range of 50 to 75% and the half-maximal degradation concentration (DC50) is 0.1 to 0.5 µM. Besides, the IC50 in the assay on MOLT-4 cells lay within 0.1 to 1 µM.

In the case of `Cc1ncsc1-c1ccc([C@H](C)NC(=O)[C@@H]2C[C@@H](O)CN2C(=O)[C@@H](NC(=O)CCCCCCCCN2CCN(Cc3ccc(-c4ccc(Cl)cc4)c(CN4CCN(c5ccc(C(=O)NS(=O)(=O)c6ccc(N[C@H](CCN(C)C)CSc7ccccc7)c([N+](=O)[O-])c6)cc5)CC4)c3)CC2)C(C)(C)C)cc1` [I-9], the IC50 with Caki-2 cells is greater than 30 µM. On BCL-XL, the maximal degradation (Dmax) was less than 50% and the 50% degradation concentration (DC50) is 0.5 to 1 µM. In the assay on MOLT-4 cells, the IC50 is greater than 3 µM.

Regarding `Cc1ncsc1-c1ccc([C@H](C)NC(=O)[C@@H]2C[C@@H](O)CN2C(=O)[C@@H](NC(=O)CCCCCCCC(=O)Nc2ccc(-c3ccc(Cl)cc3)c(CN3CCN(c4ccc(C(=O)NS(=O)(=O)c5ccc(N[C@H](CCN(C)C)CSc6ccccc6)c([N+](=O)[O-])c5)cc4)CC3)c2)C(C)(C)C)cc1` [I-10], in the assay on Caki-2 cells, the IC50 is greater than 30 µM. For the same compound, on BCL-XL, the Dmax is 50 to 75% and the half-maximal degradation concentration (DC50) lay in the range of 0.1 to 0.5 µM. In the assay on MOLT-4 cells, the IC50 is greater than 3 µM.

Turning to `Cc1ncsc1-c1ccc([C@H](C)NC(=O)[C@@H]2C[C@@H](O)CN2C(=O)[C@@H](NC(=O)CCCCCCNC(=O)c2ccc(-c3ccc(Cl)cc3)c(CN3CCN(c4ccc(C(=O)NS(=O)(=O)c5ccc(N[C@H](CCN(C)C)CSc6ccccc6)c([N+](=O)[O-])c5)cc4)CC3)c2)C(C)(C)C)cc1` [I-11], the IC50 with Caki-2 cells was greater than 30 µM; in the assay on MOLT-4 cells it was greater than 3 µM. This compound registered a maximal degradation (Dmax) on BCL-XL of less than 50%. The half-maximal degradation concentration (DC50) on BCL-XL is 0.5 to 1 µM.

As for `Cc1ncsc1-c1ccc([C@H](C)NC(=O)[C@@H]2C[C@@H](O)CN2C(=O)[C@@H](NC(=O)CCCCCCN2CCN(CC[C@H](CSc3ccccc3)Nc3ccc(S(=O)(=O)NC(=O)c4ccc(N5CCN(Cc6ccccc6-c6ccc(Cl)cc6)CC5)cc4)cc3[N+](=O)[O-])CC2)C(C)(C)C)cc1` [I-13], the IC50 with Caki-2 cells was greater than 30 µM. At BCL-XL, the Dmax was in the range of 50 to 75% and the DC50 fell in the range of 0.5 to 1 µM. Moreover, the IC50 with MOLT-4 cells is greater than 3 µM.

`Cc1ncsc1-c1ccc([C@H](C)NC(=O)[C@@H]2C[C@@H](O)CN2C(=O)[C@@H](NC(=O)CCCCCCN(C)CC[C@H](CSc2ccccc2)Nc2ccc(S(=O)(=O)NC(=O)c3ccc(N4CCN(Cc5ccccc5-c5ccc(Cl)cc5)CC4)cc3)cc2[N+](=O)[O-])C(C)(C)C)cc1` [I-14]: the IC50 in the assay on Caki-2 cells is greater than 30 µM. On BCL-XL, the Dmax was less than 50% and the DC50 was in the range of 0.5 to 1 µM. The IC50 with MOLT-4 cells is greater than 3 µM.

As for `Cc1ncsc1-c1ccc([C@H](C)NC(=O)[C@@H]2C[C@@H](O)CN2C(=O)[C@@H](NC(=O)C2CCN(c3ccc(NC(=O)c4ccc(-c5ccc(Cl)cc5)c(CN5CCN(c6ccc(C(=O)NS(=O)(=O)c7ccc(N[C@H](CCN(C)C)CSc8ccccc8)c([N+](=O)[O-])c7)cc6)CC5)c4)cc3)CC2)C(C)(C)C)cc1` [I-21], the IC50 is greater than 30 µM with Caki-2 cells and greater than 3 µM with MOLT-4 cells. Moreover, on BCL-XL, the Dmax is less than 50%. Also, the half-maximal degradation concentration (DC50) at BCL-XL fell in the range of 0.5 to 1 µM.

With `Cc1ncsc1-c1ccc([C@H](C)NC(=O)[C@@H]2C[C@@H](O)CN2C(=O)[C@@H](NC(=O)CCCCCC(=O)N2CCN(CCCNc3ccc(S(=O)(=O)NC(=O)c4ccc(N5CCN(CC6=C(c7ccc(Cl)cc7)CC(C)(C)CC6)CC5)cc4Oc4cnc5[nH]ccc5c4)cc3S(=O)(=O)C(F)(F)F)CC2)C(C)(C)C)cc1` [I-22, (2S,4R)-1-((S)-2-(7-(4-(3-((4-(N-(2-((1H-pyrrolo[2,3-b]pyridin-5-yl)oxy)-4-(4-((4′-chloro-5,5-dimethyl-3,4,5,6-tetrahydro-[1,1′-biphenyl]-2-yl)methyl)piperazin-1-yl)benzoyl)sulfamoyl)-2-((trifluoromethyl)sulfonyl)phenyl)amino)propyl)piperazin-1-yl)-7-oxoheptanamido)-3,3-dimethylbutanoyl)-4-hydroxy-N—((S)-1-(4-(4-methylthiazol-5-yl)phenyl)ethyl)pyrrolidine-2-carboxamide], the IC50 in the assay with Caki-2 cells lay within 10 to 30 µM. In addition, on BCL-XL, the Dmax is greater than 75% and the DC50 was in the range of 0.01 to 0.1 µM. Besides, the IC50 in the assay on MOLT-4 cells lay within 0.1 to 1 µM.

With `Cc1ncsc1-c1ccc([C@H](C)NC(=O)[C@@H]2C[C@@H](O)CN2C(=O)[C@@H](NC(=O)CCCCCC(=O)N2CCN(CCCN(C)CC[C@H](CSc3ccccc3)Nc3ccc(S(=O)(=O)NC(=O)c4ccc(N5CCC([C@@H](O)c6ccccc6-c6ccc(Cl)cc6)CC5)cc4)cc3S(=O)(=O)C(F)(F)F)CC2)C(C)(C)C)cc1` [I-24], the IC50 in the assay on Caki-2 cells is greater than 30 µM. At BCL-XL, the maximal degradation (Dmax) is less than 50% and the DC50 is 0.5 to 1 µM. For the same compound, the IC50 in the assay on MOLT-4 cells was greater than 3 µM.

For `Cc1ncsc1-c1ccc([C@H](C)NC(=O)[C@@H]2C[C@@H](O)CN2C(=O)[C@@H](NC(=O)CCCCCCC(=O)N2CCN(Cc3ccc(-c4ccc(Cl)cc4)c([C@H](O)C4CCN(c5ccc(C(=O)NS(=O)(=O)c6ccc(N[C@H](CCN(C)CCO)CSc7ccccc7)c(S(=O)(=O)C(F)(F)F)c6)cc5)CC4)c3)CC2)C(C)(C)C)cc1` [I-25], the IC50 in the assay with Caki-2 cells was greater than 30 µM. Also, on BCL-XL, the Dmax was greater than 75% and the DC50 is 0.01 to 0.1 µM. The IC50 with MOLT-4 cells lay within 0.1 to 1 µM.

For `Cc1ncsc1-c1ccc([C@H](C)NC(=O)[C@@H]2C[C@@H](O)CN2C(=O)[C@@H](NC(=O)CCCCCC(=O)N2CCN(CC[C@H](CSc3ccccc3)Nc3ccc(S(=O)(=O)NC(=O)c4ccc(N5CCC([C@@H](O)c6ccccc6-c6ccc(Cl)cc6)CC5)cc4)cc3S(=O)(=O)C(F)(F)F)CC2)C(C)(C)C)cc1` [I-28, (2S,4R)-1-((S)-2-(7-(4-((R)-3-((4-(N-(4-(4-((R)-(4′-chloro-[1,1′-biphenyl]-2-yl)(hydroxy)methyl)piperidin-1-yl)benzoyl)sulfamoyl)-2-((trifluoromethyl)sulfonyl)phenyl)amino)-4-(phenylthio)butyl)piperazin-1-yl)-7-oxoheptanamido)-3,3-dimethylbutanoyl)-4-hydroxy-N—((S)-1-(4-(4-methylthiazol-5-yl)phenyl)ethyl)pyrrolidine-2-carboxamide], the IC50 with Caki-2 cells was 10 to 30 µM; in the assay with MOLT-4 cells, less than 0.1 µM. This compound also showed a maximal degradation (Dmax) at BCL-XL greater than 75%. For the same compound, the half-maximal degradation concentration (DC50) on BCL-XL fell in the range of 0.01 to 0.1 µM.
